MIC data for five compounds are collected here from ChEMBL document CHEMBL1123573, “Design and synthesis of peptide derivatives of a 3-deoxy-D-manno-2-octulosonic acid (KDO) analogue as novel antibacterial agents acting upon lipopolysaccharide biosynthesis” (1987).

The MIC is the smallest concentration in the dilution series that meets the test's criterion for growth inhibition. Read a low MIC as inhibition by little substance.

One experiment has as its system Escherichia coli. The experiment is described as follows: In vitro testing for minimum inhibitory concentration against Escherichia coli ATCC 11303. The experiment is classed as functional.
Experiment [1] relates to Salmonella typhimurium. The experiment is described as follows: In vitro testing for minimum inhibitory concentration against Salmonella Typhimurium LT2 168. The experiment is classed as functional, Salmonella enterica subsp. enterica serovar Typhimurium.
In experiment [2] the test system is Salmonella typhimurium. Nature of the experiment: In vitro testing for minimum inhibitory concentration against Salmonella Typhimurium SL 1102. Type of experiment: functional, Salmonella enterica subsp. enterica serovar Typhimurium.
Setting [3] is: Salmonella enterica subsp. enterica serovar Typhimurium.

In brackets after ≈: the same amount, converted by molar mass.

In the case of `CC(N)C(=O)NCC(O)C1OC(C(=O)O)CC(O)C1O` (stereo not given), the minimum inhibitory concentration (MIC) against Escherichia coli, in the experiment on Salmonella typhimurium [1] (Salmonella enterica) and in the experiment on Salmonella typhimurium [2] (Salmonella enterica) was > 2000 µM throughout.

For GENTAMICIN, the minimum inhibitory concentration (MIC) with Escherichia coli, against Salmonella typhimurium [1] (setting [3]) and with Salmonella typhimurium [2] (setting [3]) was < 0.05 µM each time.

Consider `CSCCC(N)C(=O)NCC(O)C1OC(C(=O)O)CC(O)C1O` (stereo not given), for which the MIC in the experiment on Escherichia coli, in the experiment on Salmonella typhimurium [1] (Salmonella enterica) and in the experiment with Salmonella typhimurium [2] (Salmonella enterica) was > 2000 µM each time.

Consider `CC1(C)S[C@@H]2[C@H](NC(=O)[C@H](N)c3ccccc3)C(=O)N2[C@H]1C(=O)O` [AMPICILLIN], for which the values for the MIC in the experiment with Escherichia coli, against Salmonella typhimurium [1] (Salmonella enterica) and in the experiment with Salmonella typhimurium [2] (Salmonella enterica) were 1 µM (≈ 0.349 µg/mL), 0.3 µM (≈ 0.105 µg/mL) and 2 µM (≈ 0.699 µg/mL), respectively.

`C[C@H](N)C(=O)N[C@@H](C)C(=O)NC[C@H](O)[C@H]1O[C@H](C(=O)O)C[C@@H](O)[C@H]1O`: the results for the MIC against Escherichia coli, in the experiment with Salmonella typhimurium [1] (Salmonella enterica) and with Salmonella typhimurium [2] (Salmonella enterica) were 4 µM (≈ 1.45 µg/mL), 60 µM (≈ 21.8 µg/mL) and 4 µM (≈ 1.45 µg/mL), respectively.
